Laboratory results reported in PubChem BioAssay (NCI).
Several values for one entry are separate records, joined by “and”; a condition that tells them apart may be missing. Equal entries are not always repeated.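 Cells were grown in 96-well plates and exposed to each compound for 48 hours at five concentrations; endpoints were interpolated linearly between bracketing concentrations, or set to the highest concentration if not reached. GI50 = concentration required for 50% inhibition of growth. TGI: total growth inhibition.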

Assays:
Assay in all cases: NCI anticancer screen, dose series, 48 h
SN12C renal = system: SN12C renal
CAKI-1 renal = system: CAKI-1 renal
SF-295 CNS = system: SF-295 CNS
DU-145 prostate = system: DU-145 prostate
U251 CNS = system: U251 CNS
RPMI-8226 leukemia = system: RPMI-8226 leukemia
COLO 205 colon = system: COLO 205 colon
HT29 colon = system: HT29 colon
NCI-H522 lung = system: NCI-H522 lung
K-562 leukemia = system: K-562 leukemia
HOP-92 NSCLC = system: HOP-92 NSCLC

Row | Structure (SMILES) | TGI (SN12C renal) | TGI (CAKI-1 renal) | TGI (SF-295 CNS) | TGI (DU-145 prostate) | TGI (U251 CNS) | TGI (RPMI-8226 leukemia) | TGI (COLO 205 colon) | TGI (HT29 colon) | TGI (NCI-H522 lung) | TGI (K-562 leukemia) | TGI (HOP-92 NSCLC) | GI50 (SN12C renal) | GI50 (COLO 205 colon)
1 | COc1ccc2cc1Oc1ccc(cc1)C(Sc1ccccc1)CCOC(=O)CC2 (stereo not drawn) | > 100 µM | > 100 µM | > 100 µM | > 100 µM | > 100 µM | > 100 µM | > 100 µM | > 100 µM | > 100 µM | > 100 µM | – | – | –
2 | COC(=O)c1ccccc1C#CC#Cc1ccccc1C(=O)OC | > 10 µM | > 10 µM | > 10 µM | > 10 µM | > 10 µM | > 10 µM | 3.28 µM | > 10 µM | > 10 µM | > 10 µM | – | – | –
3 | Cc1nc2c(n1C(C)(C)C)C(=O)c1ccccc1C2=O | > 100 µM | – | > 100 µM | – | > 100 µM | – | > 100 µM | > 100 µM | > 100 µM | > 100 µM | 66.4 µM | – | –
4 | FC(F)(F)c1ccccc1N1CCN(c2nc(-c3cccs3)nc3ccc(Br)cc23)CC1 | > 100 µM | 94.5 µM | > 100 µM | > 100 µM | > 100 µM | 34.5 µM | 65.1 µM | > 100 µM | > 100 µM | > 100 µM | – | – | –
5 | O=C(/C=C/c1cccc(Br)c1)c1cccs1 | 31.1 µM | 32.6 µM | 30.2 µM | – | 26.8 µM | 5.42 µM | 46 µM | 25.3 µM | – | 16.6 µM | – | – | –
6 | COc1ccccc1-c1cc(=O)c2ccccc2[nH]1 | > 100 µM | – | > 100 µM | – | > 100 µM | > 100 µM | > 100 µM | – | > 100 µM | > 100 µM | – | – | –
7 | CN1C(=S)C(c2ccccc2)Sc2ccccc21 (stereo not drawn) | > 100 µM | > 100 µM | 89.4 µM | > 100 µM | > 100 µM | > 100 µM | > 100 µM | – | > 100 µM | > 100 µM | – | – | –
8 | COc1ccc(O[C@H](COCc2ccccc2)C[C@@H]2COC(C)(C)O2)cc1 | > 100 µM | > 100 µM | > 100 µM | > 100 µM | > 100 µM | > 100 µM | > 100 µM | > 100 µM | > 100 µM | > 100 µM | – | – | –
9 | CC(C)SC(C)(NC(=O)C1C(C)(C)CCC1(C)C)C(=O)O (stereo not drawn) | > 100 µM | – | – | > 100 µM | > 100 µM | > 100 µM | > 100 µM | – | – | > 100 µM | > 100 µM | – | –
10 | O=c1c(SSc2coc3cc(F)ccc3c2=O)coc2cc(F)ccc12 | 36.6 µM | 43.3 µM | > 100 µM | > 100 µM | 79 µM | > 100 µM | 43.2 µM | 32.3 µM | 47.3 µM | 64.2 µM | – | – | –
11 | O=C(Nc1cccc(C(F)(F)F)c1)O/N=C(/Cl)CCl | > 100 µM | > 100 µM | > 100 µM | > 100 µM | > 100 µM | 75.1 µM | > 100 µM | > 100 µM | – | > 100 µM | 59.2 µM | – | –
12 | N#Cc1c(SCc2ccccc2)nc(-c2ccccc2)[nH]c1=S | 82 µM | 79 µM | 55.1 µM | > 100 µM | 45.1 µM | 89.9 µM | 48.8 µM | 60.1 µM | – | > 100 µM | 85.7 µM | – | –
13 | CN(C(=O)Cc1ccc(Cl)c(Cl)c1)[C@H]1CCCC[C@@H]1[N+]1(C)CCCC1 | > 100 µM | > 100 µM | > 100 µM | > 100 µM | > 100 µM | > 100 µM | > 100 µM | > 100 µM | > 100 µM | > 100 µM | – | – | –
14 | COc1cc2c(c(OC)c1OC)-c1ccc(SC)c(=O)cc1[C@@H](OC(C)=O)CC2 | > 100 µM | > 100 µM | – | > 100 µM | > 100 µM | > 59.9 µM | > 100 µM | – | – | > 100 µM | > 100 µM | – | –
15 | O=C(O)CCCCCOc1cccnc1/C=N/NC1=NCCN1 | > 100 µM | > 100 µM | > 100 µM | – | > 100 µM | > 100 µM | > 100 µM | > 100 µM | > 100 µM | > 100 µM | > 100 µM | – | –
16 | CC(C)C(C/C=C1\CC(CO)(COC(=O)c2ccccc2)OC1=O)C(C)C (stereo not drawn) | 31.1 µM | 33.8 µM | 28.7 µM | – | 39.1 µM | – | 25.4 µM | 38.2 µM | 38.5 µM | 44.1 µM | 29.3 µM | – | –
17 | CCOc1ccc(/C=C(\Cl)c2ccc(OC)c(OC)c2)cc1 | > 100 µM | – | > 100 µM | – | > 100 µM | > 100 µM | > 100 µM | 40.9 µM | 74.1 µM | > 100 µM | > 100 µM | – | –

Row | Structure (SMILES) | TGI (SN12C renal) | TGI (CAKI-1 renal) | TGI (SF-295 CNS) | TGI (DU-145 prostate) | TGI (U251 CNS) | TGI (RPMI-8226 leukemia) | TGI (COLO 205 colon) | TGI (HT29 colon) | TGI (NCI-H522 lung) | TGI (K-562 leukemia) | TGI (HOP-92 NSCLC) | GI50 (SN12C renal) | GI50 (COLO 205 colon)
18 | C=C1C(=O)OC2(C)C3CCC(C3)C12 (stereo not drawn) | > 100 µM | 99.4 µM | > 100 µM | – | > 100 µM | > 100 µM | 48.4 µM | > 100 µM | 85.8 µM | > 100 µM | 87.4 µM | – | –
19 | CCOC(=O)Nc1c(C#N)[n+]([O-])c2cc(Cl)c(Cl)cc2[n+]1[O-] | 32 µM | 40.4 µM | 34 µM | > 100 µM | 32.6 µM | 16.7 µM | 30.3 µM | 37.3 µM | – | 39.9 µM | 23 µM | – | –
20 | c1ccc(C2=Nc3nc4ccccc4n3C(c3ccccc3)C2)cc1 (stereo not drawn) | – | > 100 µM | > 100 µM | – | > 100 µM | > 100 µM | > 100 µM | > 100 µM | > 100 µM | > 100 µM | > 100 µM | – | –
21 | CN(C)c1nc(NC23CC4CC(CC(C4)C2)C3)nc(N(C)C)n1 | > 85.4 µM | > 100 µM | > 33.3 µM | > 100 µM | > 55.3 µM | 12.7 µM | > 49.6 µM | > 100 µM | – | 7.84 µM | 82.2 µM | – | –
22 | C=CCOCn1cnc2c(N)ncnc21 | > 100 µM | > 100 µM | > 100 µM | > 100 µM | > 100 µM | > 100 µM | > 100 µM | > 100 µM | – | > 100 µM | – | – | –
23 | COc1ccc(S(=O)(=O)O)cc1-n1nc(C(=O)Nc2ccccc2)n[n+]1-c1cc(S(=O)(=O)[O-])ccc1OC | > 100 µM | > 100 µM | > 100 µM | > 100 µM | > 100 µM | > 100 µM | > 100 µM | > 100 µM | > 100 µM | > 100 µM | – | – | –
24 | O=C(Nc1nc2ccccc2n1Cc1ccccc1)NC12CC3CC(CC(C3)C1)C2 | > 100 µM | > 100 µM | 37 µM | – | > 100 µM | > 100 µM | > 100 µM | > 100 µM | > 100 µM | > 100 µM | 83.6 µM | – | –
25 | O=[N+]([O-])/C(C(Cl)=C(Cl)Cl)=C1\NCCO1 | > 100 µM | > 100 µM | > 100 µM | > 100 µM | > 100 µM | > 100 µM | > 100 µM | > 100 µM | > 100 µM | > 100 µM | – | – | –
26 | NC(=O)c1nnc2cc(F)ccc2c1N | > 100 µM | > 100 µM | > 100 µM | > 100 µM | > 100 µM | > 100 µM | > 100 µM | > 100 µM | > 100 µM | > 100 µM | – | – | –
27 | COC(=O)c1cc(NC(=O)c2cc(NC(=O)c3cc([N+](=O)[O-])cn3C)cn2C)cn1C | > 100 µM | > 100 µM | > 100 µM | > 100 µM | > 100 µM | > 100 µM | > 100 µM | > 100 µM | – | > 100 µM | 95.7 µM | – | –
28 | O=c1/c(=C\c2ccccc2)sc2n1C(c1ccccc1)C1(O)CCCCC1N=2 (stereo not drawn) | > 100 µM | > 100 µM | – | – | > 100 µM | > 100 µM | – | > 100 µM | > 100 µM | > 100 µM | – | – | –
29 | O=C(N=C1SCCN1C(=O)C(C(F)(F)F)C(F)(F)F)C(C(F)(F)F)C(F)(F)F | – | > 100 µM | > 100 µM | – | > 100 µM | > 100 µM | > 100 µM | > 100 µM | > 100 µM | > 100 µM | > 100 µM | – | –
30 | CCOC(=O)Oc1cc2c(c(OC)c1OC)-c1ccc(SC)c(=O)cc1C(NC(=O)C(F)(F)F)CC2 (stereo not drawn) | > 100 µM | 0.0928 µM | > 100 µM | – | 0.0148 µM | 14.1 µM | 0.523 µM and 1.03 µM | – | 0.00253 µM | > 100 µM | 0.306 µM | 0.0135 µM | 0.0447 µM
31 | CCCCCC(=O)c1ccc2[nH]c3c(C)cc([N+](=O)[O-])c(C)c3c2c1 | > 100 µM | > 100 µM | > 100 µM | – | – | > 100 µM | > 100 µM | > 100 µM | > 100 µM | 92.5 µM | – | – | –
32 | NNc1nc2ccccc2c(=O)n1NC(=O)C(=O)Nc1cccc(C(F)(F)F)c1 | > 100 µM | > 100 µM | > 100 µM | – | > 100 µM | > 100 µM | – | > 100 µM | > 100 µM | > 100 µM | > 100 µM | – | –
33 | CCC1C(c2cccc(OC)c2O)c2cc3c(cc2OC1N1CCCC1)OCO3 (stereo not drawn) | 38.3 µM | – | 50.8 µM | – | – | 34 µM | – | 37.5 µM | 35.4 µM | 38.7 µM | – | – | –
34 | Cc1ccc(S(=O)(=O)/N=C(\NN)Nc2ccc(Cl)cc2)cc1 | > 100 µM | > 100 µM | > 100 µM | > 100 µM | > 100 µM | > 100 µM | > 100 µM | > 100 µM | – | > 100 µM | > 100 µM | – | –
